Results from PubChem BioAssay AID2060623 (Molecular Pharmacology Branch, DTP, NCI, 2025).

System: 227483-062-R1-J1-PDC complex spheroids with HUVEC/MSC, viability
Test: Anticancer human tumor 227483-062-R1-J1-PDC patient-derived pancreatic carcinoma cell line growth inhibition [CLK]
Conditions: for IC50: curve of first compound; for viability, T/C: stronger effect = lower value
How it was run: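 Multi-cell-type spheroids combined patient-derived tumor cells with HUVEC endothelial cells and human mesenchymal stem cells. Paired agents were dosed in half-log steps down from about clinical Cmax, or from 10 microM where Cmax was unknown.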

[1] = second compound 0.0316 µM, first compound 0.0316 µM
[2] = second compound 0.0316 µM, first compound 0.1 µM
[3] = second compound 0.0316 µM, first compound 0.316 µM
[4] = second compound 0.0316 µM, first compound 1 µM
[5] = second compound 0.0316 µM, first compound 3.16 µM
[6] = second compound 0.0316 µM, first compound 10 µM
[7] = second compound 0.1 µM, first compound 0.0316 µM
[8] = second compound 0.1 µM, first compound 0.1 µM
[9] = second compound 0.1 µM, first compound 0.316 µM
[10] = second compound 0.1 µM, first compound 1 µM
[11] = second compound 0.1 µM, first compound 3.16 µM
[12] = second compound 0.1 µM, first compound 10 µM
[13] = second compound 0.316 µM, first compound 0.0316 µM
[14] = second compound 0.316 µM, first compound 0.1 µM
[15] = second compound 0.316 µM, first compound 0.316 µM
[16] = second compound 0.316 µM, first compound 1 µM
[17] = second compound 0.316 µM, first compound 3.16 µM
[18] = second compound 0.316 µM, first compound 10 µM
[19] = second compound 1 µM, first compound 0.0316 µM
[20] = second compound 1 µM, first compound 0.1 µM
[21] = second compound 1 µM, first compound 0.316 µM
[22] = second compound 1 µM, first compound 1 µM
[23] = second compound 1 µM, first compound 3.16 µM
[24] = second compound 1 µM, first compound 10 µM
[25] = second compound 3.16 µM, first compound 0.0316 µM
[26] = second compound 3.16 µM, first compound 0.1 µM
[27] = second compound 3.16 µM, first compound 0.316 µM
[28] = second compound 3.16 µM, first compound 1 µM
[29] = second compound 3.16 µM, first compound 3.16 µM
[30] = second compound 3.16 µM, first compound 10 µM
[31] = second compound 10 µM, first compound 0.0316 µM
[32] = second compound 10 µM, first compound 0.1 µM
[33] = second compound 10 µM, first compound 0.316 µM
[34] = second compound 10 µM, first compound 1 µM
[35] = second compound 10 µM, first compound 3.16 µM
[36] = second compound 10 µM, first compound 10 µM
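Note: spheroids exposed to compounds for seven days before readout.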
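Throughout, for viability, T/C: percent of DMSO vehicle control luminescence as 100% viability.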

CC1COCCN1c1cc(C2(S(C)(=N)=O)CC2)nc(-c2ccnc3[nH]ccc23)n1 (stereo not given) + CNC(=O)c1ccc(Nc2nc(OC3CCCC3)c3c(-c4ccc5nc(C)oc5c4)c[nH]c3n2)c(OC)c1
IC50 (second compound 0.0316 µM): > 10000 nM
IC50 (second compound 0.1 µM): > 10000 nM
IC50 (second compound 0.316 µM): 7130 nM
IC50 (second compound 1 µM): 1380 nM
IC50 (second compound 3.16 µM): 237 nM
IC50 (second compound 10 µM): < 31.6 nM
viability, T/C [1]: 110%
viability, T/C [2]: 105%
viability, T/C [3]: 110%
viability, T/C [4]: 102%
viability, T/C [5]: 85.3%
viability, T/C [6]: 63.3%
viability, T/C [7]: 125%
viability, T/C [8]: 108%
viability, T/C [9]: 103%
viability, T/C [10]: 108%
viability, T/C [11]: 65%
viability, T/C [12]: 62.3%
viability, T/C [13]: 96.4%
viability, T/C [14]: 107%
viability, T/C [15]: 92.9%
viability, T/C [16]: 79.7%
viability, T/C [17]: 64.1%
viability, T/C [18]: 44.3%
viability, T/C [19]: 76.8%
viability, T/C [20]: 68.9%
viability, T/C [21]: 73.4%
viability, T/C [22]: 53%
viability, T/C [23]: 39.1%
viability, T/C [24]: 30.6%
viability, T/C [25]: 59.7%
viability, T/C [26]: 52.9%
viability, T/C [27]: 48.1%
viability, T/C [28]: 40.9%
viability, T/C [29]: 33.9%
viability, T/C [30]: 18.6%
viability, T/C [31]: 39.8%
viability, T/C [32]: 34.6%
viability, T/C [33]: 39.5%
viability, T/C [34]: 32.5%
viability, T/C [35]: 24.2%
viability, T/C [36]: 14.5%

COc1ccc([C@@H](O)c2cc(-c3ncnc4cc(N5CCOCC5)ccc34)c(F)cc2Cl)nn1 + CNC(=O)c1ccc(Nc2nc(OC3CCCC3)c3c(-c4ccc5nc(C)oc5c4)c[nH]c3n2)c(OC)c1
IC50 (second compound 0.0316 µM): > 10000 nM
IC50 (second compound 0.1 µM): > 10000 nM
IC50 (second compound 0.316 µM): > 10000 nM
IC50 (second compound 1 µM): 750 nM
IC50 (second compound 3.16 µM): < 31.6 nM
IC50 (second compound 10 µM): < 31.6 nM
viability, T/C [1]: 94.6%
viability, T/C [2]: 85.9%
viability, T/C [3]: 108%
viability, T/C [4]: 94.5%
viability, T/C [5]: 73.1%
viability, T/C [6]: 59.8%
viability, T/C [7]: 98.6%
viability, T/C [8]: 86.8%
viability, T/C [9]: 76.7%
viability, T/C [10]: 75.5%
viability, T/C [11]: 58.5%
viability, T/C [12]: 53.5%
viability, T/C [13]: 86.2%
viability, T/C [14]: 83.1%
viability, T/C [15]: 72.1%
viability, T/C [16]: 56.5%
viability, T/C [17]: 63.5%
viability, T/C [18]: 53.7%
viability, T/C [19]: 68.1%
viability, T/C [20]: 64.3%
viability, T/C [21]: 62.8%
viability, T/C [22]: 42.5%
viability, T/C [23]: 48%
viability, T/C [24]: 46.7%
viability, T/C [25]: 42%
viability, T/C [26]: 41.5%
viability, T/C [27]: 42.1%
viability, T/C [28]: 45.7%
viability, T/C [29]: 48.3%
viability, T/C [30]: 26.2%
viability, T/C [31]: 36.1%
viability, T/C [32]: 38.2%
viability, T/C [33]: 31.9%
viability, T/C [34]: 39%
viability, T/C [35]: 38.6%
viability, T/C [36]: 27.9%

Cn1ncnc1[C@H]1c2n[nH]c(=O)c3cc(F)cc(c23)N[C@@H]1c1ccc(F)cc1 + CN1CCN(c2cc(C(=O)Nc3cc4cc(-c5cnn(C)c5)ccc4cn3)ccn2)CC1
IC50 (second compound 0.0316 µM): > 100 nM
IC50 (second compound 0.1 µM): > 100 nM
IC50 (second compound 0.316 µM): < 0.316 nM
IC50 (second compound 1 µM): < 0.316 nM
IC50 (second compound 3.16 µM): < 0.316 nM
IC50 (second compound 10 µM): < 0.316 nM
viability, T/C (second compound 0.0316 µM, first compound 0.000316 µM): 114%
viability, T/C (second compound 0.0316 µM, first compound 0.001 µM): 118%
viability, T/C (second compound 0.0316 µM, first compound 0.00316 µM): 114%
viability, T/C (second compound 0.0316 µM, first compound 0.01 µM): 101%
viability, T/C [1]: 95.3%
viability, T/C [2]: 92.3%
viability, T/C (second compound 0.1 µM, first compound 0.000316 µM): 44.2%
viability, T/C (second compound 0.1 µM, first compound 0.001 µM): 66.2%
viability, T/C (second compound 0.1 µM, first compound 0.00316 µM): 53.6%
viability, T/C (second compound 0.1 µM, first compound 0.01 µM): 53.5%
viability, T/C [7]: 56.3%
viability, T/C [8]: 54.8%
viability, T/C (second compound 0.316 µM, first compound 0.000316 µM): 3.12%
viability, T/C (second compound 0.316 µM, first compound 0.001 µM): 3.26%
viability, T/C (second compound 0.316 µM, first compound 0.00316 µM): 3.58%
viability, T/C (second compound 0.316 µM, first compound 0.01 µM): 4.15%
viability, T/C [13]: 3.29%
viability, T/C [14]: 4.45%
viability, T/C (second compound 1 µM, first compound 0.000316 µM): 1.25%
viability, T/C (second compound 1 µM, first compound 0.001 µM): 1.34%
viability, T/C (second compound 1 µM, first compound 0.00316 µM): 1.34%
viability, T/C (second compound 1 µM, first compound 0.01 µM): 2.07%
viability, T/C [19]: 1.23%
viability, T/C [20]: 1.14%
viability, T/C (second compound 3.16 µM, first compound 0.000316 µM): 1.84%
viability, T/C (second compound 3.16 µM, first compound 0.001 µM): 2.14%
viability, T/C (second compound 3.16 µM, first compound 0.00316 µM): 1.91%
viability, T/C (second compound 3.16 µM, first compound 0.01 µM): 2.43%
viability, T/C [25]: 1.6%
viability, T/C [26]: 1.89%
viability, T/C (second compound 10 µM, first compound 0.000316 µM): 1.14%
viability, T/C (second compound 10 µM, first compound 0.001 µM): 1.09%
viability, T/C (second compound 10 µM, first compound 0.00316 µM): 1.63%
viability, T/C (second compound 10 µM, first compound 0.01 µM): 2.37%
viability, T/C [31]: 1.2%
viability, T/C [32]: 1%

CC(=O)O[C@H]1C(=O)[C@@]2(C)[C@H]([C@H](OC(=O)c3ccccc3)[C@]3(O)C[C@H](OC(=O)[C@H](O)[C@@H](NC(=O)c4ccccc4)c4ccccc4)C(C)=C1C3(C)C)[C@]1(OC(C)=O)CO[C@@H]1C[C@@H]2O + CN1CCN(c2cc(C(=O)Nc3cc4cc(-c5cnn(C)c5)ccc4cn3)ccn2)CC1
IC50 (second compound 0.0316 µM): < 31.6 nM
IC50 (second compound 0.1 µM): < 31.6 nM
IC50 (second compound 0.316 µM): < 31.6 nM
IC50 (second compound 1 µM): < 31.6 nM
IC50 (second compound 3.16 µM): < 31.6 nM
IC50 (second compound 10 µM): < 31.6 nM
viability, T/C [1]: 27.4%
viability, T/C [2]: 22.2%
viability, T/C [3]: 31.2%
viability, T/C [4]: 31.4%
viability, T/C [5]: 36.9%
viability, T/C [6]: 43.8%
viability, T/C [7]: 28.6%
viability, T/C [8]: 32.8%
viability, T/C [9]: 35%
viability, T/C [10]: 38%
viability, T/C [11]: 40.7%
viability, T/C [12]: 40.6%
viability, T/C [13]: 2.61%
viability, T/C [14]: 6.66%
viability, T/C [15]: 2.59%
viability, T/C [16]: 4.5%
viability, T/C [17]: 5.51%
viability, T/C [18]: 6.7%
viability, T/C [19]: 1.8%
viability, T/C [20]: 2.26%
viability, T/C [21]: 3.26%
viability, T/C [22]: 4%
viability, T/C [23]: 1.87%
viability, T/C [24]: 2.01%
viability, T/C [25]: 7.44%
viability, T/C [26]: 3.02%
viability, T/C [27]: 3.51%
viability, T/C [28]: 2.58%
viability, T/C [29]: 5.48%
viability, T/C [30]: 4.46%
viability, T/C [31]: 1.55%
viability, T/C [32]: 1.61%
viability, T/C [33]: 1.94%
viability, T/C [34]: 1.68%
viability, T/C [35]: 1.56%
viability, T/C [36]: 1.39%

O=C(c1cc(Cc2n[nH]c(=O)c3ccccc23)ccc1F)N1CCN(C(=O)C2CC2)CC1 + CNC(=O)c1ccc(Nc2nc(OC3CCCC3)c3c(-c4ccc5nc(C)oc5c4)c[nH]c3n2)c(OC)c1
IC50 (second compound 0.0316 µM): > 10000 nM
IC50 (second compound 0.1 µM): > 10000 nM
IC50 (second compound 0.316 µM): > 10000 nM
IC50 (second compound 1 µM): > 10000 nM
IC50 (second compound 3.16 µM): 44.9 nM
IC50 (second compound 10 µM): < 31.6 nM
viability, T/C [1]: 86.9%
viability, T/C [2]: 84.9%
viability, T/C [3]: 119%
viability, T/C [4]: 93.1%
viability, T/C [5]: 100%
viability, T/C [6]: 98.4%
viability, T/C [7]: 86.1%
viability, T/C [8]: 117%
viability, T/C [9]: 89.3%
viability, T/C [10]: 89.5%
viability, T/C [11]: 91.5%
viability, T/C [12]: 91.3%
viability, T/C [13]: 86.8%
viability, T/C [14]: 92.9%
viability, T/C [15]: 78.5%
viability, T/C [16]: 89.3%
viability, T/C [17]: 95.5%
viability, T/C [18]: 99%
viability, T/C [19]: 63.3%
viability, T/C [20]: 60.9%
viability, T/C [21]: 65.4%
viability, T/C [22]: 61.1%
viability, T/C [23]: 80.1%
viability, T/C [24]: 66.3%
viability, T/C [25]: 50.9%
viability, T/C [26]: 54.5%
viability, T/C [27]: 40.5%
viability, T/C [28]: 48.9%
viability, T/C [29]: 50.3%
viability, T/C [30]: 47.7%
viability, T/C [31]: 37%
viability, T/C [32]: 34%
viability, T/C [33]: 35.3%
viability, T/C [34]: 42.1%
viability, T/C [35]: 42.3%
viability, T/C [36]: 39%
